Key:
[1] = Perfume stabilization effect (sequestering agent combination); set-up: key to Sunlight exposure (80 MJ) Smell evaluation: A: No change; B: No almost change; C: Yes change; conditions: sequestering agent 0.03 alone, photostabilizer 0, amounts wt %
Protocol: Next, for combinations with sequestering agent, photostabilization effect for each perfume was studied by the following evaluation formulation.
Each test sample was prepared. Smell change of samples exposed to sunlight (80 MJ) was observed (judgement by perfumier).

[2] = Pigment stabilization effect (sequestering agent combination); set-up: key to Sunlight exposure (80 MJ) Appearance: A: No change; B: No almost change; C: Yes change; key to Sunlight exposure (80 MJ) ΔE: color difference ΔE in Lab space vs. color before sunlight exposure; conditions: photostabilizer 0, amounts wt %
Protocol: First of all, the photostabilization effect and appearance changes of a composition for each pigment were studied by the following evaluation formulation.
Each test sample was prepared. Observation of appearance changes (visual evaluation) and measurement of color difference (ΔE) were carried out for samples exposed to sunlight (around 80 MJ).
Color difference was measured by Lab coordinate system with spectrophotometer. Color difference was calculated based on the color before sunlight exposure. Namely, from the measured value (L1,a1,b1) before sunlight exposure, color difference (ΔE) was calculated by following formula.

[3] = Drug stabilization effect (sequestering agent combination); set-up: key to Sunlight exposure (80 MJ) Appearance: A: No change; B: No almost change; C: Yes change; conditions: sequestering agent 0.03 alone, photostabilizer 0, amounts wt %
Protocol: Next, when combined with a sequestering agent, the photostabilization effect and appearance change of a composition for each drug was studied by the following evaluation formulation.
Each test sample was prepared. Appearance change of the samples exposed to sunlight (around 80 MJ) was observed (visual evaluation). Also, residual yield of a drug was measured by liquid chromatography.

[4] = colorant Blue No. 1 0.0001, sequestering agent 0.03 alone
[5] = colorant Green No. 3 0.0001, sequestering agent 0.03 alone
[6] = colorant Red No. 106 0.0001, sequestering agent 0.02 alone
[7] = colorant Red No. 213 0.0001, sequestering agent 0.05 alone
[8] = colorant Red No. 227 0.0001, sequestering agent 0.02 alone
[9] = colorant Red No. 401 0.001, sequestering agent 0.1 alone
[10] = colorant Yellow No. 5 0.001, sequestering agent 0.02 alone
[11] = colorant Yellow No. 203 0.001, sequestering agent 0.02 alone
[12] = colorants Red No. 227 0.0001 + Yellow No. 203 0.0001, sequestering agent 0.02 alone
[13] = colorants Red No. 401 0.0001 + Green No. 3 0.00001, sequestering agent 0.03 alone
[14] = colorants Yellow No. 203 0.0001 + Yellow No. 5 0.0001, sequestering agent 0.01 alone
[15] = drug 2-o-α-α-glucopyranosyl-L-ascorbic acid 2.0
[16] = drug Dibutylhydroxytoluene 0.01
[17] = drug Dipotassium glycyrrhizinate 0.05

Sodium metaphosphate
Sunlight exposure (80 MJ) Smell evaluation ([1]; natural perfume Jasmine oil 0.03): C | Sunlight exposure (80 MJ) Smell evaluation ([1]; natural perfume Musk oil 0.03): C | Sunlight exposure (80 MJ) Smell evaluation ([1]; natural perfume Orange oil 0.03): C | Sunlight exposure (80 MJ) Smell evaluation ([1]; perfume Fruity 0.03): C | Sunlight exposure (80 MJ) Smell evaluation ([1]; perfume Muguet 0.03): C | Sunlight exposure (80 MJ) Smell evaluation ([1]; synthetic perfume Lilial 0.03): C | Sunlight exposure (80 MJ) Smell evaluation ([1]; synthetic perfume Oranthiol 0.03): C | Sunlight exposure (80 MJ) Appearance [2, 4]: C | Sunlight exposure (80 MJ) ΔE [2, 4]: 8.02 | Sunlight exposure (80 MJ) Appearance [2, 5]: C | Sunlight exposure (80 MJ) ΔE [2, 5]: 2.02 | Sunlight exposure (80 MJ) Appearance [2, 6]: C | Sunlight exposure (80 MJ) ΔE [2, 6]: 2.88 | Sunlight exposure (80 MJ) Appearance [2, 7]: C | Sunlight exposure (80 MJ) ΔE [2, 7]: 3.71 | Sunlight exposure (80 MJ) Appearance [2, 8]: C | Sunlight exposure (80 MJ) ΔE [2, 8]: 1.37 | Sunlight exposure (80 MJ) Appearance [2, 9]: C | Sunlight exposure (80 MJ) ΔE [2, 9]: 7.07 | Sunlight exposure (80 MJ) Appearance [2, 10]: C | Sunlight exposure (80 MJ) ΔE [2, 10]: 1.77 | Sunlight exposure (80 MJ) Appearance [2, 11]: C | Sunlight exposure (80 MJ) ΔE [2, 11]: 2.74 | Sunlight exposure (80 MJ) Appearance [2, 12]: C | Sunlight exposure (80 MJ) ΔE [2, 12]: 3.01 | Sunlight exposure (80 MJ) Appearance [2, 13]: C | Sunlight exposure (80 MJ) ΔE [2, 13]: 4.23 | Sunlight exposure (80 MJ) Appearance [2, 14]: C | Sunlight exposure (80 MJ) ΔE [2, 14]: 1.44 | Sunlight exposure (80 MJ) Appearance [3, 15]: C | Sunlight exposure (80 MJ) Residual yield [%] [3, 15]: 85.2% | Sunlight exposure (80 MJ) Appearance [3, 16]: C | Sunlight exposure (80 MJ) Residual yield [%] [3, 16]: 54.7% | Sunlight exposure (80 MJ) Appearance [3, 17]: B | Sunlight exposure (80 MJ) Residual yield [%] [3, 17]: 85.8%

— patent publication US6395896B2, “Pyridazine derivatives, manufacturing method and related composition” (Shiseido Co., Ltd., priority 1999, dated 2002)
